The results in this text go back to patent US20260285855A1, “HETEROARYL DERIVATIVES AS DDRS INHIBITORS” (CHIESI FARMACEUTICI S.P.A., priority 2023, published 2026).

The target of one test is T1, DDR2 (Homo sapiens, UniProt Q16832).
T1 construct: purchased Life Technologies
T1 sequence (Q16832 22-855): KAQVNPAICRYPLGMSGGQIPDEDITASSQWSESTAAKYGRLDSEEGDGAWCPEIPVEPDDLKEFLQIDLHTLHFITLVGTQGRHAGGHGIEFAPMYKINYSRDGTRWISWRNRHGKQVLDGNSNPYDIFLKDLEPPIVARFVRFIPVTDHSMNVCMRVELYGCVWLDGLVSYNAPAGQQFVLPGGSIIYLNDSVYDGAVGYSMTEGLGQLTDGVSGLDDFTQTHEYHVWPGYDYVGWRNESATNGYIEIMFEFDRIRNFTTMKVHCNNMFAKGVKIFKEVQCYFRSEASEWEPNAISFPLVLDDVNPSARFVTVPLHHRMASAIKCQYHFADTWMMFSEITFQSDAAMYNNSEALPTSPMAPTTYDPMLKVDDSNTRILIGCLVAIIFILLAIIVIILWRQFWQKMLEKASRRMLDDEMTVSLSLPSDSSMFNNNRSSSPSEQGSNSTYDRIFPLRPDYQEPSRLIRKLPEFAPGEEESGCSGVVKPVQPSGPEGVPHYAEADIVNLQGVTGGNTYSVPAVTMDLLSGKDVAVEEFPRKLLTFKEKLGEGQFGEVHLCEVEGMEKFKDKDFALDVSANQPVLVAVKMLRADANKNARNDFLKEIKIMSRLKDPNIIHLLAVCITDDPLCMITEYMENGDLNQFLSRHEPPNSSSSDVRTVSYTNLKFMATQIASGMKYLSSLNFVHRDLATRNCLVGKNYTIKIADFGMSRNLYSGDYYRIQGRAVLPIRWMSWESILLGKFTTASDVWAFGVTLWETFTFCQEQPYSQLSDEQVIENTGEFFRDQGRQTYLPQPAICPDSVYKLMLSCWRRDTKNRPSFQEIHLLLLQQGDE
Put plainly: LanthaScreen Europium Kinase Binding assay, DDR2. Particulars: 5 nM DDR2, 10 nM Kinase Tracer 178, 1 h at rt; Ki from IC50 by Cheng-Prusoff; read-out: Ki DDR2. As for the experimental part: (§1) DDR1 and DDR2 binding assays were performed using Life Technologies LanthaScreen™ Europium Kinase Binding assay. […] IC50 values were determined in GraphPad Prism 7.0 software, using 4 parameter model: log (inhibitor) vs. response. IC50 values were converted in Ki using the Cheng-Prusoff equation (Ki-IC50/(1+ [Tracer]/Kd).
(In general: TR-FRET usually uses a lanthanide donor and a delayed reading to cut background.)

For the next test, the target named is T2, DDR1 (Homo sapiens, UniProt Q08345).
T2 construct: purchased Carna Biosciences
Put plainly: LanthaScreen Europium Kinase Binding assay, DDR1. Particulars: 5 nM DDR1, 20 nM Kinase Tracer 178, 1 h at rt; Ki from IC50 by Cheng-Prusoff; read-out: Ki DDR1. As for the experimental part:
as §1

T2 sequence (Q08345 19-913): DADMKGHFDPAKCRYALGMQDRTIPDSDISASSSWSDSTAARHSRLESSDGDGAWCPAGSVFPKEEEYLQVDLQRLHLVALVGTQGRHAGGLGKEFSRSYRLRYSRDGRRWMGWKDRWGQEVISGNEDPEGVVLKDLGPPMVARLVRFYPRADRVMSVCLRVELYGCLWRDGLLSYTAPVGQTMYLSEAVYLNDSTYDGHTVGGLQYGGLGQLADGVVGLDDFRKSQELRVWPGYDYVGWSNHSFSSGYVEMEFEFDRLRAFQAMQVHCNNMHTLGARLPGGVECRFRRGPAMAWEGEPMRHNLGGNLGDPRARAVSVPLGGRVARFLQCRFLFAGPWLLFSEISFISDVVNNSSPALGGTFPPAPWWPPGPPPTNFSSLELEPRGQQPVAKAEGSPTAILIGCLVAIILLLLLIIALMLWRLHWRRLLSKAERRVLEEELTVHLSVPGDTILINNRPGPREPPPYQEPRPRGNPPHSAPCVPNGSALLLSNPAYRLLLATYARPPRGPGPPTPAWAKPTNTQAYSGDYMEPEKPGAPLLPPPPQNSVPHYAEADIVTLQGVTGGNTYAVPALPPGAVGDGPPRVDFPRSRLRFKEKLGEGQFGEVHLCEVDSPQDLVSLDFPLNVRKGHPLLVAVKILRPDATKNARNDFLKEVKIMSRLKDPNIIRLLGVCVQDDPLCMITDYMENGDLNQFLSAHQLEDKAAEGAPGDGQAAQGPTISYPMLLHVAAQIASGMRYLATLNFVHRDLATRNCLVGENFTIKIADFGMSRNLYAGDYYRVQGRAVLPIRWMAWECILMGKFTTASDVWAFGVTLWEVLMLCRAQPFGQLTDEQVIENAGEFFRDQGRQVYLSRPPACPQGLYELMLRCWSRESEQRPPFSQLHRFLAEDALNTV

One may read the Ki as a measure of affinity in units of concentration, obtained from inhibition or displacement. Take `COc1ccc(C(F)(F)F)cc1NC(=O)NC1CC2(C1)CN(C(=O)c1cnn3ccn(C)c13)C2` [Example 65, 1-(2-methoxy-5-(trifluoromethyl)phenyl)-3-(2-(1-methyl-1H-imidazo[1,2-b]pyrazole-7-carbonyl)-2-azaspiro[3.3]heptan-6-yl)urea]: the inhibitory constant (Ki) on DDR2 was 5 to 25 nM; on DDR1 it was less than 5 nM.
On to `Cn1ccn2ncc(C(=O)N3CC4(CC(NC(=O)Nc5cc(C(F)F)ccn5)C4)C3)c12` [Example 66, 1-(4-(difluoromethyl)pyridin-2-yl)-3-(2-(1-methyl-1H-imidazo[1,2-b]pyrazole-7-carbonyl)-2-azaspiro[3.3]heptan-6-yl)urea], for which the Ki at DDR2 was 5 to 25 nM; on DDR1 it was less than 5 nM.
Take `Cn1ccn2ncc(C(=O)N3CC4(CC(NC(=O)Nc5cccc(OC(F)F)c5)C4)C3)c12` [Example 67, 1-(3-(difluoromethoxy)phenyl)-3-(2-(1-methyl-1H-imidazo[1,2-b]pyrazole-7-carbonyl)-2-azaspiro[3.3]heptan-6-yl)urea]: the Ki is 5 to 25 nM on DDR2 and less than 5 nM at DDR1.
`COc1ccc(OC(F)(F)F)cc1NC(=O)NC1CC2(C1)CN(C(=O)c1cnn3ccccc13)C2` [Example 68, 1-(2-methoxy-5-(trifluoromethoxy)phenyl)-3-(2-(pyrazolo[1,5-a]pyridine-3-carbonyl)-2-azaspiro[3.3]heptan-6-yl)urea]: the Ki on DDR2 was 5 to 25 nM; at DDR1 it was less than 5 nM.
For `COc1ccc(OC(F)(F)F)cc1NC(=O)NC1CC2(C1)CN(C(=O)c1cnn3ccc(N4CCN(C)CC4)cc13)C2` [Example 69, 1-(2-methoxy-5-(trifluoromethoxy)phenyl)-3-(2-(5-(4-methylpiperazin-1-yl)pyrazolo[1,5-a]pyridine-3-carbonyl)-2-azaspiro[3.3]heptan-6-yl)urea], the Ki on DDR2 is 5 to 25 nM; on DDR1, less than 5 nM.
As to `CCn1ccn2ncc(C(=O)N3CC4(CC(NC(=O)Nc5cccc(C(F)(F)F)c5)C4)C3)c12` [Example 70, 1-(2-(1-ethyl-1H-imidazo[1,2-b]pyrazole-7-carbonyl)-2-azaspiro[3.3]heptan-6-yl)-3-(3-(trifluoromethyl)phenyl)urea], the inhibition constant (Ki) at DDR2 and on DDR1 was less than 5 nM throughout.
As for `Cn1ccn2ncc(C(=O)N3CC4(CC(NC(=O)Nc5cc(C#N)cc(OC(F)(F)F)c5)C4)C3)c12` [Example 71, 1-(3-cyano-5-(trifluoromethoxy)phenyl)-3-(2-(1-methyl-1H-imidazo[1,2-b]pyrazole-7-carbonyl)-2-azaspiro[3.3]heptan-6-yl)urea], the Ki at DDR2 and on DDR1 was less than 5 nM in each case.
Regarding `Cn1ccn2ncc(C(=O)N3CC4(CC(NC(=O)Nc5cc(OC(F)(F)F)ccc5F)C4)C3)c12` [Example 72, 1-(2-fluoro-5-(trifluoromethoxy)phenyl)-3-(2-(1-methyl-1H-imidazo[1,2-b]pyrazole-7-carbonyl)-2-azaspiro[3.3]heptan-6-yl)urea], the inhibition constant (Ki) on DDR2 was 5 to 25 nM; at DDR1, less than 5 nM.
Consider `Cn1ccn2ncc(C(=O)N3CC4(CC(NC(=O)Nc5cc(OC(F)(F)F)ccn5)C4)C3)c12` [Example 73, 1-(2-(1-methyl-1H-imidazo[1,2-b]pyrazole-7-carbonyl)-2-azaspiro[3.3]heptan-6-yl)-3-(4-(trifluoromethoxy)pyridin-2-yl)urea], for which the Ki is 5 to 25 nM on DDR2 and less than 5 nM at DDR1.
As to `O=C(Nc1cc(C(F)F)ccn1)NC1CC2(C1)CN(C(=O)c1ncnc3ccsc13)C2` [Example 74, 1-(4-(difluoromethyl)pyridin-2-yl)-3-(2-(thieno[3,2-d]pyrimidine-4-carbonyl)-2-azaspiro[3.3]heptan-6-yl)urea], the inhibition constant (Ki) at DDR2 and on DDR1 was less than 5 nM throughout.
On to `Cn1ccn2ncc(C(=O)N3CC4(CC(NC(=O)Nc5cc(C(F)(F)F)ccn5)C4)C3)c12` [Example 75, 1-(2-(1-methyl-1H-imidazo[1,2-b]pyrazole-7-carbonyl)-2-azaspiro[3.3]heptan-6-yl)-3-(4-(trifluoromethyl)pyridin-2-yl)urea], for which the figures for the Ki on DDR2 and on DDR1 were 5 to 25 nM and less than 5 nM, respectively.
Regarding `COc1ccc(OC(F)(F)F)cc1NC(=O)N(C)C1CC2(C1)CN(C(=O)c1ncnc3ccsc13)C2` [Example 77, 3-(2-methoxy-5-(trifluoromethoxy)phenyl)-1-methyl-1-(2-(thieno[3,2-d]pyrimidine-4-carbonyl)-2-azaspiro[3.3]heptan-6-yl)urea], the Ki at DDR2 was 5 to 25 nM; at DDR1 it was less than 5 nM.
In the same order, the values of `COc1c(CO)cc(OC(F)(F)F)cc1NC(=O)NC1CC2(C1)CN(C(=O)c1cnn3ccn(C)c13)C2` [Example 78, 1-(3-(hydroxymethyl)-2-methoxy-5-(trifluoromethoxy)phenyl)-3-(2-(1-methyl-1H-imidazo[1,2-b]pyrazole-7-carbonyl)-2-azaspiro[3.3]heptan-6-yl)urea] are 25 to 100 nM and less than 5 nM.
As to `O=C(Nc1cccc(C(F)(F)F)c1)NC1CC2(C1)CN(C(=O)c1ncnc3ccsc13)C2` [Example 79, 1-(2-(thieno[3,2-d]pyrimidine-4-carbonyl)-2-azaspiro[3.3]heptan-6-yl)-3-(3-(trifluoromethyl)phenyl)urea], the Ki at DDR2 and on DDR1 was less than 5 nM in each case.
Regarding `Cc1ccc(-n2nc(C(C)(C)C)cc2NC(=O)NC2CC3(C2)CN(C(=O)c2cnn4ccsc24)C3)cc1` [Example 80, 1-(3-(tert-butyl)-1-(p-tolyl)-1H-pyrazol-5-yl)-3-(2-(pyrazolo[5,1-b]thiazole-7-carbonyl)-2-azaspiro[3.3]heptan-6-yl)urea], the Ki at DDR2 was 5 to 25 nM; on DDR1, less than 5 nM.
On to `COc1ccc(OC(F)(F)F)cc1NC(=O)N(C)C1CC2(C1)CN(C(=O)c1cnn3ccc(N4CCN(C)CC4)cc13)C2` [Example 81, 3-(2-methoxy-5-(trifluoromethoxy)phenyl)-1-methyl-1-(2-(5-(4-methylpiperazin-1-yl)pyrazolo[1,5-a]pyridine-3-carbonyl)-2-azaspiro[3.3]heptan-6-yl)urea], for which the Ki at DDR2 is 5 to 25 nM; at DDR1 it was less than 5 nM.
On to `Cc1ccc(-n2nc(C(C)(C)C)cc2NC(=O)NC2CC3(C2)CN(C(=O)c2ncnc4ccsc24)C3)cc1` [Example 82, 1-(3-(tert-butyl)-1-(p-tolyl)-1H-pyrazol-5-yl)-3-(2-(thieno[3,2-d]pyrimidine-4-carbonyl)-2-azaspiro[3.3]heptan-6-yl)urea], for which the Ki is 5 to 25 nM at DDR2 and less than 5 nM at DDR1.
Consider `COc1ncc(Cl)cc1NC(=O)NC1CC2(C1)CN(C(=O)c1cnn3ccn(C)c13)C2` [Example 83, 1-(5-chloro-2-methoxypyridin-3-yl)-3-(2-(1-methyl-1H-imidazo[1,2-b]pyrazole-7-carbonyl)-2-azaspiro[3.3]heptan-6-yl)urea], for which the Ki is 5 to 25 nM on DDR2 and less than 5 nM on DDR1.
In the same order, the values of `CN1CCN(c2ccn3ncc(C(=O)N4CC5(CC(NC(=O)Nc6cccc(C(F)(F)F)c6)C5)C4)c3c2)CC1` [Example 84, 1-(2-(5-(4-methylpiperazin-1-yl)pyrazolo[1,5-a]pyridine-3-carbonyl)-2-azaspiro[3.3]heptan-6-yl)-3-(3-(trifluoromethyl)phenyl)urea] are 5 to 25 nM and less than 5 nM.
